Results reported in publication PMC11371747, “The role of l-leucovorin uptake and metabolism in the modulation of 5-fluorouracil efficacy and antifolate toxicity” (Frontiers in Pharmacology, 2024).
Like-named read-outs stand apart in the source and are kept apart here. Blank lines part the entries; values can stand above or below the compound they belong to.

Tests used:
CHO/C5-hRFC cells = experiment: Growth inhibition, SRB assay, CHO/C5-hRFC (human RFC transfected); assay type: cell-based, Chinese hamster; details: for IC50: CHO/C5-hRFC; for Protection by l-LV, increase of the IC50 value: hRFC-transfected cells, 5 µM l-LV
Protocol: (§1) Briefly, cells were seeded in triplicate in 96-well plates at their pre-established optimal density (CHO cells: 2,500 cells/100 μL; WiDr and HT29: 3,500 cells/100 μL; WiDr-LF/LV, LS174T: 5,000 cells/100 μL; CaCo2, CaCo2-LF/LV, H292, H28 and MSTO-211H: 6,000 cells/100 μL; H460, SW948 and SW1398: 7,000 cells/100 μL) and were allowed to attach for ∼ 24 h at 37°C in 5% CO2 and 100% humidified incubator. Thereafter, 100 μL of drug dilution without LV, or with 5 μM l-LV/5 μM d-LV/10 μM dL-LV (or any LV alone) were added. Cells were allowed to grow for 72 h at 37°C in 5% CO2 and 100% humidity. The t = 0 h control plate consisted of cells plated on the same day as the other cells, but after 24 h at 37°C in 5% CO2 and 100% humidity, only 100 μL medium was added and the cells were fixed immediately with 50% trichloroacetic acid (TCA) in milliQ water (25 μL per well) and put at 4°C for at least 1 h. Plates were washed five times with water and dried. Cells were stained with the SRB protein dye (0.4% (w/v) in 1% acetic acid. Excess dye was washed away four times with 1% acetic acid and plates were dried again. 200 μL of Tris (10 mM Tris (hydroxymethyl)-aminomethane in MQ) was added and optical density (OD) was read at 492 nm after mixing 2–3 min on a plate shaker.

CHO/C5 cells = experiment: Growth inhibition, SRB assay, CHO/C5 (RFC-deficient); assay type: cell-based, Chinese hamster
Protocol: as §1

AA8 cells = experiment: Growth inhibition, SRB assay, AA8 (parental CHO); assay type: cell-based, Chinese hamster; details: for IC50: AA8 parental CHO
Protocol: as §1

CHO/C5-MOCK cells = experiment: Growth inhibition, SRB assay, CHO/C5-MOCK (empty vector); assay type: cell-based, Chinese hamster
Protocol: as §1

[1] = target: T1, reduced folate carrier (RFC/SLC19A1) (Homo sapiens, UniProt P41440); experiment: Inhibition of RFC-mediated [3H]-l-LV influx in CEM-7A cells; assay type: cell-based
T1 construct: CEM-7A cells, which display 30-fold RFC overexpression relative to wild-type CCRF-CEM cells; endogenous in cells; host or cells: CEM-7A (CCRF-CEM variant, RFC+++ 30-fold)
T1 sequence (P41440 1-591): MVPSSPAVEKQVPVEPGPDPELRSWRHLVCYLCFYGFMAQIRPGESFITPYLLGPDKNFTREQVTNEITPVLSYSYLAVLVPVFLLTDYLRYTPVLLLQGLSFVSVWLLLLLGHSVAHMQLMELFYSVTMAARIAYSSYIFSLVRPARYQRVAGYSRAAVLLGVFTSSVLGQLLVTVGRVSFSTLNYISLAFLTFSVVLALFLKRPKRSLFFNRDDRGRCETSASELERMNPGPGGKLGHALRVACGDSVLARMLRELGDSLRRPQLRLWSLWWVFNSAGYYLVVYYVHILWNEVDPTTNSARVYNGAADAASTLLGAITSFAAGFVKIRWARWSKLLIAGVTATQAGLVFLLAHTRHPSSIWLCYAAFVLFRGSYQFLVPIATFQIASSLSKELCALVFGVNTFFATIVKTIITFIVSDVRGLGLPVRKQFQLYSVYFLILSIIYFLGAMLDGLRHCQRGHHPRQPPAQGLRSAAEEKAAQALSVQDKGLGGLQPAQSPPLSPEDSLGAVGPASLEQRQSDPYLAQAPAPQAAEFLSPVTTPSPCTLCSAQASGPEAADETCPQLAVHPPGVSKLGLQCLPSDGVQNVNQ
Protocol: In order to determine whether the LV isomers were substrates for either folate receptor α (FRα), RFC and/or PCFT, we used model systems with established overexpression of these receptors or transporters ([Westerhof et al., 1995a]; [Westerhof et al., 1995b]; [Lasry et al., 2008]; [Van der Heijden et al., 2009]).
CEM-7A cells (2 × 10^6) were suspended in 1 mL HBSS and the assay was initiated by addition of 25 μL 200 μM [^3H]-l-LV; 5,000 pmol (i.e., 5 μM final concentration). Incubations proceeded for 2 min at 37°C in the absence and presence of increasing amounts of unlabelled LV/antifolate drug. Blanks consisted of a separate incubation at 4°C or incubation with 100-fold molar excess of unlabelled l-LV. [^3H]-l-LV influx was terminated by adding 9 mL ice-cold HBSS, centrifugation and an additional wash of the cells with 10 mL ice-cold buffer. Cell pellets were then assessed for radioactivity. Relative affinities for RFC are expressed as the concentration of unlabelled drug necessary to inhibit [^3H]-l-LV uptake by 50%.

CHO/C5-PCFT cells = experiment: Growth inhibition, SRB assay, CHO/C5-PCFT (PCFT-transfected); assay type: cell-based, Chinese hamster
Protocol: as §1

H28 cells = experiment: Growth inhibition, SRB assay, H28 (MPM); assay type: cell-based, human; details: H28, SRB, read-out: IC50, 72 h drug exposure
Protocol: as §1

MSTO-211H cells = experiment: Growth inhibition, SRB assay, MSTO-211H (MPM); assay type: cell-based, human; details: SRB, read-out: IC50, 72 h drug exposure
Protocol: as §1

H292 cells = experiment: Growth inhibition, SRB assay, H292 (NSCLC); assay type: cell-based, human; details: H292, SRB, read-out: IC50, 72 h drug exposure
Protocol: as §1

H460 cells = experiment: Growth inhibition, SRB assay, H460 (NSCLC); assay type: cell-based, human; details: H460, SRB, read-out: IC50, 72 h drug exposure
Protocol: as §1

[2] = Cricetulus griseus, antifolate alone

50% inhibition of [3H]-l-LV influx (RFC), fold higher concentration than l-LV [1]: 3 fold
Structure (SMILES): CN(Cc1cnc2nc(N)nc(N)c2n1)c1ccc(C(=O)N[C@@H](CCC(=O)O)C(=O)O)cc1 [MTX, methotrexate]
IC50 (CHO/C5-hRFC cells; antifolate + 5 µM l-LV): 1.45 µM
IC50 (CHO/C5-hRFC cells; [2]): 0.02 µM
Protection by l-LV, increase of the IC50 value (CHO/C5-hRFC cells): 72 fold
IC50 (CHO/C5 cells; [2]): 8.93 µM
IC50 (CHO/C5 cells; antifolate + 5 µM l-LV): > 100 µM
Fold less active than PLX (AA8 cells; AA8 cells): 10 fold
IC50 (AA8 cells; antifolate + 5 µM l-LV): 6.6 µM
IC50 (AA8 cells; [2]): 0.038 µM
IC50 (CHO/C5-MOCK cells; [2]): 6.67 µM
IC50 (CHO/C5-MOCK cells; antifolate + 5 µM l-LV): > 100 µM
IC50 (CHO/C5-PCFT cells; [2]): 3.39 µM
IC50 (CHO/C5-PCFT cells; antifolate + 5 µM l-LV): 41 µM

IC50 (H292 cells; antifolate + 5 µM l-LV): 6.33 µM
IC50 (H292 cells; Homo sapiens, NCI-H292, 72 h, antifolate alone): 0.014 ± 0.0008 µM
IC50 (H460 cells; antifolate + 5 µM l-LV): 19.8 µM
IC50 (H460 cells; Homo sapiens, NCI-H460, 72 h, antifolate alone): 0.022 ± 0.0009 µM
Structure (SMILES): Cc1nc2ccc(CN(C)c3ccc(C(=O)N[C@@H](CCC(=O)O)C(=O)O)s3)cc2c(=O)[nH]1 [RTX, raltitrexed]
IC50 (CHO/C5-hRFC cells; antifolate + 5 µM l-LV): 11.7 µM
IC50 (CHO/C5-hRFC cells; [2]): 0.008 µM
Protection by l-LV, increase of the IC50 value (CHO/C5-hRFC cells): 1462 fold
IC50 (H28 cells; antifolate + 5 µM l-LV): 4.26 µM
IC50 (H28 cells; Homo sapiens, NCI-H28, 72 h, antifolate alone): 0.136 ± 0.016 µM
IC50 (CHO/C5 cells; [2]): 2.73 µM
IC50 (CHO/C5 cells; antifolate + 5 µM l-LV): 6.68 µM
IC50 (AA8 cells; antifolate + 5 µM l-LV): 2.92 µM
IC50 (AA8 cells; [2]): 0.019 µM
IC50 (CHO/C5-MOCK cells; [2]): 2.4 µM
IC50 (CHO/C5-MOCK cells; antifolate + 5 µM l-LV): > 100 µM
IC50 (MSTO-211H cells; Homo sapiens, 72 h, antifolate alone): 0.008 ± 0.0005 µM
IC50 (MSTO-211H cells; antifolate + 5 µM l-LV): 4.58 µM
IC50 (CHO/C5-PCFT cells; [2]): 4.33 µM
IC50 (CHO/C5-PCFT cells; antifolate + 5 µM l-LV): 52.6 µM
